Experimental data: paper PMC8778445, “HPLC-MS Profiling, Antioxidant, Antimicrobial, Antidiabetic, and Cytotoxicity Activities of Arthrocnemum indicum (Willd.) Moq. Extracts” (Plants, 2022)

Molecular target: T1, Intestinal Alpha-glucosidase type I (α-glucosidase)
T1 construct: gene MAL12; commercial enzyme (Sigma-Aldrich), no catalogue number
Assay: alpha-glucosidase inhibition assay
Type: biochemical
Conditions: positive control; 4-nitrophenyl β-d-glucopyranoside listed among reagents (beta anomer as printed); pH, temperature not given
Text: alpha-glucosidase inhibition assay on Intestinal Alpha-glucosidase type I (α-glucosidase)

- α-Glucosidase (IC50 mg/mL): 1.12 ± 0.08 mg/mL
Structure (SMILES): C[C@H]1O[C@H](O[C@H]2[C@H](O)[C@@H](O)[C@@H](O[C@H]3[C@H](O)[C@@H](O)C(O)O[C@@H]3CO)O[C@@H]2CO)[C@H](O)[C@@H](O)[C@@H]1N[C@H]1C=C(CO)[C@@H](O)[C@H](O)[C@H]1O (stereo partly shown) [acarbose]
